Laboratory results: ChEMBL document CHEMBL5223072, “A look around the West Indies: The spices of life are secondary metabolites” (Bioorg Med Chem, 2020)
Values after ≈ are worked out from the molar mass of the structure shown.

How the values were obtained:
A549 [1] = assay: Antiproliferative activity against human A549 cells assessed as cell growth inhibition measured for 72 hrs; format: functional, cell-based; conditions: A549, 72 h
SK-OV-3 = assay: Antiproliferative activity against human SK-OV-3 cells assessed as cell growth inhibition measured for 72 hrs; format: functional, cell-based; conditions: SK-OV-3, 72 h
[2] = Inhibition of Saccharomyces cerevisiae 20S proteosome
NCI-H460 = assay: Cytotoxicity against human NCI-H460 cells assessed as reduction in cell viability; format: functional, cell-based
HCT-116 = assay: Cytotoxicity against human HCT-116 cells assessed as reduction in cell viability; format: functional, cell-based
Plasmodium falciparum [3] = assay: Antimalarial activity against Plasmodium falciparum W2 assessed as reduction in parasite growth; format: functional
Plasmodium falciparum [4] = assay: Antimalarial activity against Plasmodium falciparum D6 assessed as reduction in parasite growth; format: functional
MCF7 = assay: Antiproliferative activity against human MCF7 cells assessed as cell viability by WST-8 colorimetric assay; format: functional, cell-based
P388 [5] = assay: Antiproliferative activity against mouse P388 cells assessed as cell viability by WST-8 colorimetric assay; format: functional, cell-based
A549 [6] = assay: Antiproliferative activity against human A549 cells assessed as cell viability by WST-8 colorimetric assay; format: functional, cell-based
Leishmania donovani = assay: Antileishmanial activity against Leishmania donovani assessed as parasite growth inhibition; format: functional, organism-based
[7] = Activation of hypoxia-induced HIF-1 in human T47D cells; format: cell-based
Candida albicans [8] = assay: Antifungal activity against Candida albicans; format: functional
Staphylococcus aureus [9] = assay: Antibacterial activity against Staphylococcus aureus SH1000 cultured in iron rich media assessed as reduction in bacterial cell growth; format: functional
Staphylococcus aureus [10] = assay: Antibacterial activity against Staphylococcus aureus SH1000 cultured in iron depleted media assessed as reduction in bacterial cell growth; format: functional
[11] = Inhibition of sodium channel (unknown origin); set-up: species or system Homo sapiens
Streptococcus [12] = assay: Antibiofilm activity against Streptococcus assessed as inhibition of biofilm maturation; format: functional, organism-based
Streptococcus [13] = assay: Antibacterial activity against Streptococcus; format: functional
P388 [14] = assay: Antiproliferative activity against mouse P388 cells assessed as cell growth inhibition; format: functional, cell-based
MAXF401 cell line = assay: Cytotoxicity against human NCI-MAXF401 cells assessed as reduction in cell viability; format: functional, cell-based
[15] = Cytotoxicity against human bladder carcinoma cell assessed as reduction in cell viability; format: functional, cell-based
OVCAR-3 = assay: Cytotoxicity against human OVCAR-3 cells assessed as reduction in cell viability; format: functional, cell-based
Candida albicans [16] = assay: Antifungal activity against Candida albicans as reduction in fungal growth; format: functional, organism-based

`C=C/C=C\[C@H](C)[C@H](OC(N)=O)[C@@H](C)[C@H](O)[C@@H](C)C/C(C)=C\[C@H](C)[C@@H](O)[C@@H](C)/C=C\[C@@H](O)C[C@@H]1OC(=O)C(C)=C[C@H]1C` showed an IC50 (A549 [1]) of 1.8 nM and an IC50 (SK-OV-3) of 6.1 nM.
Work on `CCCCCC(=O)N[C@H](C(=O)N[C@@H](CCS(C)(=O)=O)C(=O)N[C@@H](CC(C)C)C(=O)[C@@]1(C)CO1)C(C)C` yielded an IC50 [2] of 2.6 nM, an EC50 (NCI-H460) of 6 nM and an EC50 (HCT-116) of 43 nM.
`CC(C)=CCC[C@H](C)c1ccc(C)cc1O` showed an MIC (Plasmodium falciparum [3]) of 3.6 µg/mL (≈ 16.5 µM) and an MIC (Plasmodium falciparum [4]) of 1.8 µg/mL (≈ 8.24 µM).
In the case of `CCC[C@H]1C[C@@H](OC)C[C@H](C)C[C@@H]2C[C@@H](OC(=O)/C=C\CCc3coc(/C=C\CNC(=O)OC)n3)C[C@H](CC(=O)O1)O2`, the IC50 (MCF7) is reported as 33 nM, the IC50 (P388 [5]) is reported as 0.72 nM and the IC50 (A549 [6]) is reported as 43.9 nM.
Compound `CC(C)=CCC[C@H](C)c1ccc(C)cc1OC(=O)c1ccncc1` has an IC50 (Leishmania donovani) of 600 nM.
With `C=C[C@@H]1CSC(C[C@@H](C)[C@@H](C)C[C@H](C)CCN(C)C(=O)[C@H](C)CC)=N1` the IC50 [7] was 5.6 nM.
In the case of `CO[C@H]1[S+]([O-])/C2=C\C(=O)[C@](C)(O[C@H]3CC[C@H](N(C)C)[C@@H](C)O3)[C@H](O)CC/C(C)=C\[C@@H]3[C@@H](C)[C@](C)(Cl)[C@@H](C[C@H]3O[C@H]3CC[C@H](N(C)C)[C@@H](C)O3)OC(=O)[C@@H]3CSC(=N3)[C@]1(C)N2` (some centres not stated), the MIC (Candida albicans [8]) is reported as 16 µg/mL (≈ 17.7 µM).
Work on `CCC(=O)[C@@H](C)C[C@@H](C)C[C@@H](C)CC[C@H](O)CC(=O)[C@H](CC(C)C)[C@H](O)c1cc(O)cc(O)c1` yielded an MIC (Staphylococcus aureus [9]) of 63 µM (≈ 30.2 µg/mL) and an MIC (Staphylococcus aureus [10]) of 63 µM (≈ 30.2 µg/mL).
`CO/C(=C/C(=O)N1C(=O)C=C[C@@H]1C)CCNC(=O)CC/C=C/C(C)CC/C(=C/Cl)CCCC#CBr` (some centres not stated) showed an IC50 [11] of 5000 nM.
For `C[C@H]1/C=C/[C@H]2OC(C)(C)O[C@H]2C(=O)O[C@H](CCCCCCCC(=O)O)[C@@H](C)CCC1`, the IC50 (Streptococcus [12]) was 44000 nM and the MIC (Streptococcus [13]) was 250 µM (≈ 106 µg/mL).
Work on `C=CCCC/C(=C\Cl)CCC(C)/C=C/CCC(=O)NCC/C(=C\C(=O)N1C(=O)C=C[C@@H]1C)OC` (some centres not stated) yielded an IC50 [11] of 5000 nM.
With `CCC(=O)[C@@H](C)C[C@@H](C)C[C@@H](C)CC[C@H](O)C[C@H](O)[C@@H](CC(C)C)[C@H](O)c1cc(O)cc(O)c1` the MIC (Staphylococcus aureus [9]) was 125 µM (≈ 60.1 µg/mL) and the MIC (Staphylococcus aureus [10]) was 125 µM (≈ 60.1 µg/mL).
Compound `C#CCCC/C(=C\Cl)CCC(C)/C=C/CCC(=O)NCC/C(=C\C(=O)N1C(=O)C=C[C@@H]1C)OC` (some centres not stated) has an IC50 [11] of 5000 nM.
For `CC(=O)[C@@H](C)C[C@@H](C)C[C@@H](C)CC[C@H](O)C[C@H](O)[C@H](CC(C)C)[C@H](O)c1cc(O)cc(O)c1`, the MIC (Staphylococcus aureus [9]) was 500 µM (≈ 233 µg/mL) and the MIC (Staphylococcus aureus [10]) was 500 µM (≈ 233 µg/mL).
Compound `C[C@H]1/C=C/[C@H]2OC(C)(C)O[C@H]2C(=O)O[C@H](c2cccc(CCCCC(=O)O)c2)[C@@H](C)/C=C/C1` has an IC50 (Streptococcus [12]) of 63000 nM.
With `CCC(=O)[C@@H](C)C[C@@H](C)C[C@@H](C)CC[C@H](O)C[C@H](O)[C@H](CC(C)C)[C@H](O)c1cc(O)cc(O)c1` the MIC (Staphylococcus aureus [9]) was 125 µM (≈ 60.1 µg/mL) and the MIC (Staphylococcus aureus [10]) was 125 µM (≈ 60.1 µg/mL).
Compound `CCCCCCOC(=O)C[C@H]1C[C@H](OC(=O)/C=C\CCc2coc(/C=C\CNC(=O)OC)n2)C[C@@H](/C=C/c2ccccc2)O1` has an IC50 (A549 [6]) of 1.6 nM.
With `CCCCCC(=O)N[C@H](C(=O)N[C@@H](CC[S+](C)[O-])C(=O)N[C@@H](CC(C)C)C(=O)[C@@]1(C)CO1)C(C)C` (some centres not stated) the IC50 [2] was 2.5 nM, the EC50 (NCI-H460) was 9 nM and the EC50 (HCT-116) was 19 nM.
Work on `CCCCCCCCCC[C@H](O)C[C@H](O)[C@H](CC(C)C)[C@H](O)c1cc(O)cc(O)c1` yielded an MIC (Staphylococcus aureus [9]) of 8 µM (≈ 3.4 µg/mL) and an MIC (Staphylococcus aureus [10]) of 8 µM (≈ 3.4 µg/mL).
Work on `CCC(=O)CCCCCCC[C@H](O)C[C@H](O)[C@H](CC(C)C)[C@H](O)c1cc(O)cc(O)c1` yielded an MIC (Staphylococcus aureus [9]) of over 500 µM and an MIC (Staphylococcus aureus [10]) of 250 µM (≈ 110 µg/mL).
`CCC(=O)[C@@H](C)C[C@@H](C)C[C@@H](C)CC[C@H](O)C[C@H](O)[C@H](CC(C)C)[C@H](O)c1cc(OC)cc(OC)c1` gave an MIC (Staphylococcus aureus [9]) of over 500 µM and an MIC (Staphylococcus aureus [10]) of over 500 µM.
For `CC[C@H](O)C[C@H](O)[C@H](CC(C)C)[C@H](O)c1cc(O)cc(O)c1`, the MIC (Staphylococcus aureus [9]) was over 500 µM and the MIC (Staphylococcus aureus [10]) was over 500 µM.
Compound `CC(C)C[C@H]([C@H](O)c1cc(O)cc(O)c1)[C@@H](O)C[C@@H](O)CC[C@H](C)C[C@H](C)C[C@H](C)CO` has an MIC (Staphylococcus aureus [9]) of 500 µM (≈ 227 µg/mL) and an MIC (Staphylococcus aureus [10]) of 500 µM (≈ 227 µg/mL).
For `CCCC(=O)[C@@H](C)C[C@@H](C)C[C@@H](C)CC[C@H](O)C[C@H](O)[C@H](CC(C)C)[C@H](O)c1cc(O)cc(O)c1`, the MIC (Staphylococcus aureus [9]) was 63 µM (≈ 31.2 µg/mL) and the MIC (Staphylococcus aureus [10]) was 63 µM (≈ 31.2 µg/mL).
Compound `C=C/C=C\[C@H](C)[C@H](OC(N)=O)[C@@H](C)[C@H](O)[C@@H](C)C/C(C)=C\[C@H](C)[C@@H](O)[C@@H](C)/C=C\[C@@H](O)C[C@@H]1OC(=O)[C@H](C)[C@@H](O)[C@H]1C` [DISERMOLIDE] has an IC50 (P388 [14]) of 0.5 µg/mL (≈ 0.842 µM), an IC50 (A549 [1]) of 1.8 nM and an IC50 (SK-OV-3) of 6.1 nM.
Work on `CC1=CC[C@H]2[C@](C)(CO)CCC[C@]2(C)[C@H]1C[C@@]12O[C@@H]1C(=O)C(CO)=C[C@H]2O` [EPOXYPHOLAMIN A] yielded an IC50 (MAXF401 cell line) of 0.01 µg/mL (≈ 0.0266 µM), an IC50 [15] of 0.017 µg/mL (≈ 0.0452 µM) and an IC50 (OVCAR-3) of 0.017 µg/mL (≈ 0.0452 µM).
Compound `CC(=O)O[C@@H]1c2nc(cs2)C(=O)O[C@@H](CCCC(C)(Cl)Cl)[C@H](C)C(=O)O[C@@H](C(C)(C)O)c2nc(cs2)C(=O)OC1(C)C` [HECTOCHLORIN] has an IC50 (Candida albicans [16]) of 20 nM.
With `CC(=O)O[C@H]1C(=O)[C@@]2(C)[C@H]([C@H](OC(=O)c3ccccc3)[C@]3(O)C[C@H](OC(=O)[C@H](O)[C@@H](NC(=O)c4ccccc4)c4ccccc4)C(C)=C1C3(C)C)[C@]1(OC(C)=O)CO[C@@H]1C[C@@H]2O` [PACLITAXEL] the IC50 (A549 [1]) was 3.8 nM and the IC50 (SK-OV-3) was 31.3 nM.
